Experiments:
[1] = system: wild type and Mrgprb2 knockout mice
Experimental: Adult mice up to 8 months of age were anesthetized with an intraperitoneal injection of ketamine/xylazine. Fifteen (15) minutes after induction of anesthesia, mice were injected intravenously with 50 μL of 12.5 mg/mL Evans Blue in saline. Five (5) minutes later, 5 μL of 0.5 mg/mL elamipretide (in saline) was administered by injection in one paw and saline was administered in the other paw. Fifteen (15) minutes later, mice were sacrificed by decapitation. Paw tissue was collected, dried for 24 hours at 50° C., and weighed. Evans Blue was extracted by a 24-hour incubation in formamide at 50° C., and the optical density (O.D.) was read at 600 nm (the maximum Evans Blue absorbance) and 740 nm (the minimum specific Evans Blue absorbance) using a spectrophotometer. The value at 740 nm, reflecting Evans Blue-independent O.D., was subtracted from the value at 600 nm to attain the final readout.
Injection site reactions were characterized by local inflammation and edema. The standard assay in mice to monitor local skin inflammation is the Evans Blue assay. In conditions of local skin inflammation, blood vessels become more permeable and components of blood leak out into the local tissue. Evans Blue is a dye that binds to a protein called albumin in the blood and leaks out with the albumin in inflammatory conditions. In this assay, mice were injected intravenously with Evans Blue and the amount of Evans Blue leakage in a tissue was a readout of the extent of inflammation. […] This is preferable to other skin sites in mice, as they are extremely thin, compared to human skin, and injected fluids almost immediately leave the sites of injection.

untransfected cells = test: Fluo-4 calcium assay in untransfected HEK293 cells; type: cell-based, human; conditions: untransfected cells (data not shown)
MRGPRX2 receptor = target: T1, MRGPRX2 receptor (Homo sapiens, UniProt Q96LB1); test: Fluo-4 calcium assay in MRGPRX2 expressing Chem-1 cells; type: cell-based; conditions: Chem-1 cells, Fluo-4
T1 construct: host or cells: Chem-1 cells (G418-selected)
T1 sequence (Q96LB1 1-330): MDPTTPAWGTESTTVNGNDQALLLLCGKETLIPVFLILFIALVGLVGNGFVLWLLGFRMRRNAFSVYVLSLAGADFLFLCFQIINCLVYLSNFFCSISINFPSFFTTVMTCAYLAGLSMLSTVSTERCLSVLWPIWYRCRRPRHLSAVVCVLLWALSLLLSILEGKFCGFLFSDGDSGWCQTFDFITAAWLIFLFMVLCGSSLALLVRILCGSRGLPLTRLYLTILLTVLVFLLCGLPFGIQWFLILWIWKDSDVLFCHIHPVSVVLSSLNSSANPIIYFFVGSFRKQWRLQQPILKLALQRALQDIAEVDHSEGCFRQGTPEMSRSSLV

healthy subjects = test: Phase 1 crossover study: self-assessed injection site reactions; type: in vivo, human; conditions: 60 mg SQ elamipretide with or without the intervention, across all timepoints, all participants, n = 80
Experimental: • This Phase 1, open-label, 6-arm crossover study included 10 healthy subjects ≥18 and ≤65 years of age. • All subjects received 60 mg of SQ elamipretide to alternating quadrants of the abdomen on each of 6 occasions (FIG. 3), with or without the interventions listed in Table 2. • For each treatment arm, ISR clinical and self-assessments were performed pre-elamipretide administration and at 0.5, 1, 2, 4, 6, 12, 24, and 48 hours after each elamipretide dose. • Blood samples for plasma concentrations of elamipretide and its metabolites were also collected pre-dose and at 0.25, 0.5, 1, 2, 4, and 6 hours post-elamipretide dose. • Primary endpoints consisted of comparisons of the grading from the clinical assessments and the self-assessments of each ISR parameter following administration of elamipretide with each separate intervention versus that of elamipretide alone. • Secondary endpoints consisted of comparison of various pharmacokinetic (PK) parameters and adverse events following administration of elamipretide with each separate intervention versus that of elamipretide alone.
After the screening period (up to 28 days) in this phase 1, open-label, 4-week, 6-part, crossover study, all eligible subjects received 60 mg (0.75 mL) of SC elamipretide to alternating quadrants of the abdomen on each of 6 occasions, with or without potential ISR interventions. The first treatment arm (Arm 1) commenced on Day 1 with administration of elamipretide only, followed by the remaining treatment arms (Arms 2-6) with the following potential mitigations: mometasone furoate, 0.1% ointment, applied once under a hydrocolloid occlusive dressing (DuoDERM Extra Thin) 7 days prior to elamipretide administration (Arm 2); ice application at the elamipretide injection site 5 minutes pre- and post-drug administration (Arm 3); tacrolimus 0.1% ointment applied 15 minutes pre-drug dosing (Arm 4); doxepin 5% cream applied 15 minutes pre-elamipretide administration (Arm 5); and diphenhydramine 50 mg orally taken 2 hours prior to administration (Arm 6). For each treatment arm, blood samples for plasma concentrations of elamipretide and its metabolites were collected pre-dose and at 0.25, 0.5, 1, 2, 4, and 6 hours post-elamipretide dose. Vital signs were recorded pre-dose and at 0.5 and 6 hours post-elamipretide administration. ISR clinical and self-assessments were performed pre-elamipretide administration and at 0.5, 1, 2, 4, 6, 12, 24, and 48 hours after each elamipretide dose. Injection sites were photographed at 0.5, 1, 2, 4, and 12 hours post-elamipretide dose.
The primary endpoints of this study were comprised of the following efficacy measures: clinical assessments and subject self-assessments. Specifically, the primary endpoints consisted of comparisons of the grading of each ISR parameter following administration of elamipretide with each separate intervention versus the grading of each ISR parameter following administration of elamipretide alone. For clinical assessments, the clinical staff used a standard procedure adapted from the Division of Aids Table for Grading the Severity of Adult and Pediatric Adverse Events to score pain, erythema, induration, and pruritus using a 4-point scale based on severity (0=None, 1=Mild, 2=Moderate, 3=Severe, 4=Potentially Life Threatening). The self-assessments were based on a questionnaire to determine how bothered the patient was following each injection of elamipretide and included the following parameters: pain, burning sensation, cold sensation, itching, redness, swelling, and bruising.
All statistical analyses were performed using SAS GRID Linux/SAS Studio (Version 9.4, or higher). PK parameters for elamipretide and its metabolites, M1 and M2, were summarized using descriptive statistics.

[2] = system: control (non-MRGPRX2 expressing) Chem-1 cells; conditions: parent Chem-1 cells, Fluo-4
Experimental: MRGPRX2 expressing and control (non-MRGPRX2 expressing) Chem-1 cells lines were obtained from Discovery Services, EuroFins. Cells were cultured in Dulbecco's Modified Eagle Medium (DMEM) high glucose medium (4.5 g/L) with 10% fetal bovine serum (FBS), non-essential amino acids, and N-2-hydroxyethylpiperazine-N′-2-ethanesulfonic acid (HEPES) buffer (pH 7.0-7.6). Geneticin (G418) was used for selection of MRGPRX2-expressing Chem-1 cells. Cells were maintained at 37° C. at 5% CO2. Cells were seeded to a glass bottom 96-well plates at a density of 50,000 per well (Cellvis). Cells were loaded with Fluo-4 AM for 30 minutes at 37° C. at a concentration of 2.5 μM. Cells were washed once with Dulbecco's phosphate buffered saline (DPBS). Cells were rested at room temperature for 30 minutes before use and washed with DPBS. Cells were resuspended in 50 μl phosphate buffered saline (PBS) with calcium and magnesium. […] Plates were read immediately with a Biotek plate reader. Readings were taken every 6 seconds for 2 minutes.

Question: What does the source list for `Cc1cc(O)cc(C)c1C[C@H](NC(=O)[C@H](N)CCCNC(=N)N)C(=O)N[C@@H](CCCCN)C(=O)N[C@@H](Cc1ccccc1)C(N)=O` (stereo in doubt) [Elamipretide, H-D-Arg-2′,6′Dmt-Lys-Phe-NH2]?
Answer: reduction of Evans Blue accumulation in footpads in Mrgprb2 knockout mice ([1]; 0.5 mg/mL elamipretide, knockout vs wild type): 80%; Evans Blue accumulation in footpads ([1]; Mrgprb2 knockout mice, 0.5 mg/mL elamipretide): almost no Evans Blue accumulation; Evans Blue labeling in footpads ([1]; wild type mice, 5 μL of 0.5 mg/mL elamipretide injected in paw, vs saline): strong Evans Blue labeling; Fluo-4 fluorescence after elamipretide exposure (untransfected cells): not in untransfected cells; activation of the MRGPRX2 expressing cells (calcium mobilization) (MRGPRX2 receptor): dose dependent activation; Self-assessed Bruising, (%) of Reported Reactions (healthy subjects): (6.3) %; Self-assessed Bruising, Number of Reported Reactions (healthy subjects): 5; Self-assessed Burning sensation, (%) of Reported Reactions (healthy subjects): (16.3) %; Self-assessed Burning sensation, Number of Reported Reactions (healthy subjects): 13; Self-assessed Cold Sensation, Number of Reported Reactions (healthy subjects): 0.0; Self-assessed Itching, (%) of Reported Reactions (healthy subjects): (20.0) %; Self-assessed Itching, Number of Reported Reactions (healthy subjects): 16; Self-assessed Pain, (%) of Reported Reactions (healthy subjects): (13.8) %; Self-assessed Pain, Number of Reported Reactions (healthy subjects): 11; Self-assessed Redness, (%) of Reported Reactions (healthy subjects): (30.0) %; Self-assessed Redness, Number of Reported Reactions (healthy subjects): 24; Self-assessed Swelling, (%) of Reported Reactions (healthy subjects): (22.5) %; Self-assessed Swelling, Number of Reported Reactions (healthy subjects): 18; effect on cells lacking the MRGPRX2 receptor (calcium mobilization) [2]: no effect

Source: US20240299486A1, “ADDRESSING INJECTION SITE REACTIONS ASSOCIATED WITH THE ADMINISTRATION OF ELAMIPRETIDE” (STEALTH BIOTHERAPEUTICS INC., priority 2022, published 2024)
